Where two headings read alike, the source gives them in different places. *1 amine or outer side, *2 acyl side, *3 side chain or, on linkers, in order; H or OH if unused. Where a SMILES comes first, the peptide text is derived from it. Bridges are numbered along the chain shown (N, C = ends). [ ]: non-standard residue; d: D form. The star is where a group is joined. X1 = CC[C@H](C)[C@@H](N[*:1])[C@@H](O)CC(=O)O[C@H](C(=O)[C@H](C)C(=O)[*:2])C(C)C; X2 = CC[C@H](C)[C@@H](N[*:1])[C@@H](O)CC(=O)[*:2]; NMeY = CN[C@@H](Cc1ccc(O)cc1)C(=O)O; dNMeL = CN[C@H](CC(C)C)C(=O)O; Hiv = CC(C)[C@H](O)C(=O)O; Pyruvoyl = CC(=O)C(=O)*
What was measured:
[1] = system: K562 (CML, Chronic myelogenous); assay: IC50 Aplidine Family panel (MTT/MTS); type: cell-based; conditions: read-out: IC50 (Molar) CML (Chronic myelogenous) K562
[2] = system: MC116 (Lymphoma, undifferentiated); assay: IC50 Aplidine Family panel (MTT/MTS); type: cell-based; conditions: read-out: IC50 (Molar) Lymphoma (undifferentiated) MC116
786-O (Renal) = assay: IC50 Aplidine Family panel (MTT); type: cell-based
MX-1 (Breast) = assay: IC50 Aplidine Family panel (MTT/MTS); type: cell-based; conditions: MTT; read-out: IC50 (Molar) Breast MX-1
PC-3 (Prostate) = assay: IC50 Aplidine Family panel (MTT); type: cell-based; conditions: read-out: IC50 (Molar) Prostate PC-3
[3] = system: Hut 78 (Lymphoma, Cutaneous T cell); assay: IC50 Aplidine Family panel (MTT); type: cell-based
SK-OV-3 (Ovary) = assay: IC50 Aplidine Family panel (MTT); type: cell-based
CCRF-SB (ALL, B-cell) = assay: IC50 Aplidine Family panel (MTT); type: cell-based; conditions: read-out: IC50 (Molar) ALL (B-cell) CCRF-SB
[4] = system: Molt 3 (ALL, Acute lymphobalstic); assay: IC50 Aplidine Family panel (MTT/MTS); type: cell-based; conditions: read-out: IC50 (Molar) ALL (Acute lymphobalstic) Molt 3
[5] = system: HL-60 (ALL, Promyelocytic leukemia); assay: IC50 Aplidine Family panel (MTT/MTS); type: cell-based; conditions: MTT, read-out: IC50 (Molar) ALL (Promyelocytic leukemia) HL-60
[6] = system: P3HR1 (Lymphoma, Burkitts ascites); assay: IC50 Aplidine Family panel (MTT); type: cell-based
SK-HEP-1 (Liver) = assay: IC50 Aplidine Family panel (MTT/MTS); type: cell-based; conditions: read-out: IC50 (Molar) Liver SK-HEP-1
PANC-1 (Pancreas) = assay: IC50 Aplidine Family panel (MTT); type: cell-based
A549 (NSCL) = assay: IC50 Aplidine Family panel (MTT/MTS); type: cell-based, human; conditions: MTT, read-out: IC50 (Molar) NSCL A549
FADU (Pharynx) = assay: IC50 Aplidine Family panel (MTT/MTS); type: cell-based; conditions: read-out: IC50 (Molar) Pharynx FADU
[7] = doses near those required for therapeutic applications; cited from earlier work
5637 (Bladder) = assay: IC50 Aplidine Family panel (MTT/MTS); type: cell-based; conditions: read-out: IC50 (Molar) Bladder 5637
H9 (Lymphoma, T cell) = assay: IC50 Aplidine Family panel (MTT/MTS); type: cell-based; conditions: MTT, read-out: IC50 (Molar) Lymphoma (T cell) H9
SW 694 (Fibrosarcoma) = assay: IC50 Aplidine Family panel (MTT/MTS); type: cell-based; conditions: MTT; read-out: IC50 (Molar) Fibrosarcoma SW 694
[8] = system: U-937 (Lymphoma, Histiocytic); assay: IC50 Aplidine Family panel (MTT); type: cell-based
Hs746t (Gastric) = assay: IC50 Aplidine Family panel (MTT/MTS); type: cell-based; conditions: read-out: IC50 (Molar) Gastric Hs746t
HT-29 (Colon) = assay: IC50 Aplidine Family panel (MTT/MTS); type: cell-based, human; conditions: read-out: IC50 (Molar) Colon HT-29
MEL-28 human melanoma = assay: Cytotoxicity IC50 (after Berjeron et al); conditions: Homo sapiens, SK-MEL-28, read-out: Cytotoxicity of [aa3]-aplidine Congeners IC50 (Molar) MEL28
Source text: (§1) Methodology: after Berjeron et al, Biochem and Bioph Res. Comm., 1984, 121, 3, 848-854.
(§2) P388=Murine lymphoma. A549=human lung carcinoma. HT-29=human colon carcinoma. MEL-28=human melanoma.
(§3) A549=human lung carcinoma. HT-29=human colon carcinoma. MEL-28=human melanoma.

[9] = system: HT-29 human colon carcinoma; assay: Cytotoxicity IC50 (after Berjeron et al); conditions: Homo sapiens, HT-29, read-out: Cytotoxicity of [aa3]-aplidine Congeners IC50 (Molar) HT29
Source text: as §1, §2, §3

P388 Murine lymphoma = assay: Cytotoxicity IC50 (after Berjeron et al); conditions: Mus musculus, P388, read-out: Cytotoxicity of [aa3]-aplidine Congeners IC50 (Molar) P388
Source text: as §1, §2, §3

[10] = system: A549 human lung carcinoma; assay: Cytotoxicity IC50 (after Berjeron et al); conditions: Homo sapiens, A549, read-out: Cytotoxicity of [aa3]-aplidine Congeners IC50 (Molar) A549
Source text: as §1, §2, §3

[11] = system: ARH-77 (Leukemia, Plasma cell); assay: IC50 Aplidine Family panel (MTT); type: cell-based; conditions: Homo sapiens, read-out: IC50 (Molar) Leukemia (Plasma cell) ARH-77
CHSA (Chondrosarcoma) = assay: IC50 Aplidine Family panel (MTS); type: cell-based; conditions: MTS (new); read-out: IC50 (Molar) Chondrosarcoma CHSA
OSA-FH (Osteosarcoma) = assay: IC50 Aplidine Family panel (MTS); type: cell-based; conditions: MTS (new); read-out: IC50 (Molar) Osteosarcoma OSA-FH
[12] = system: solid tumors like colon, chondrosarcoma and osteosarcoma; assay: MTS assay, specificity against solid tumors; type: cell-based; conditions: with respect to didemnin B (III)
Mel-28 (Melanoma) = assay: IC50 Aplidine Family panel (MTS); type: cell-based; conditions: Homo sapiens, SK-MEL-28; MTS (new); read-out: IC50 (Molar) Melanoma Mel-28
LNCAP (Prostate) = assay: IC50 Aplidine Family panel (MTS); type: cell-based; conditions: Homo sapiens, MTS (new), read-out: IC50 (Molar) Prostate LNCAP
tumor cells = assay: In vitro antitumor activity; type: cell-based
protein biosynthesis = conditions: compared with III (didemnin B); cited from earlier work
pancreatic carcinoma = conditions: compared with III (didemnin B); cited from earlier work
NCI 60 cell panel = conditions: cited from earlier work
[13] = system: tumor cells (clonogenic assays); conditions: compared with III (didemnin B); cited from earlier work

CC[C@H](C)[C@H]1NC(=O)[C@@H](NC(=O)[C@@H](CC(C)C)N(C)C(=O)[C@@H]2CCCN2C(=O)C(C)O)[C@@H](C)OC(=O)[C@H](Cc2ccc(OC)cc2)N(C)C(=O)[C@@H]2CCCN2C(=O)[C@H](CC(C)C)NC(=O)[C@@H](C)C(=O)[C@H](C(C)C)OC(=O)C[C@@H]1O (stereo partly shown) [Didemnin B]
IC50 ([1]; MTT): 3310 nM | IC50 ([2]; MTT): 8.84 nM | IC50 (786-O (Renal); read-out: IC50 (Molar) Renal 786-O): 290 nM | IC50 (MX-1 (Breast)): 1540 nM | IC50 (PC-3 (Prostate)): 90 nM | IC50 ([3]; read-out: IC50 (Molar) Lymphoma (Cutaneous T cell) Hut 78): 35.6 nM | IC50 (SK-OV-3 (Ovary); read-out: IC50 (Molar) Ovary SK-OV-3): 163 nM | IC50 (CCRF-SB (ALL, B-cell)): 655 nM | IC50 ([4]; MTT): 545 nM | IC50 [5]: 144 nM | IC50 ([6]; read-out: IC50 (Molar) Lymphoma (Burkitts ascites) P3HR1): 55.8 nM | IC50 (SK-HEP-1 (Liver); MTT): 92.1 nM | IC50 (PANC-1 (Pancreas); read-out: IC50 (Molar) Pancreas PANC-1): 0.152 nM | IC50 (A549 (NSCL)): 121000 nM | IC50 (FADU (Pharynx); MTT): 97.9 nM | toxicity [7]: toxic at doses near those required for therapeutic applications | IC50 (5637 (Bladder); MTT): 25 nM | IC50 (H9 (Lymphoma, T cell)): 213 nM | IC50 (SW 694 (Fibrosarcoma)): 3280 nM | IC50 ([8]; read-out: IC50 (Molar) Lymphoma (Histiocytic) U-937): 187 nM | IC50 (Hs746t (Gastric); MTT): 6.6 nM | IC50 (HT-29 (Colon); MTT): 80.7 nM

CC[C@H](C)[C@H]1NC(=O)[C@@H](NC(=O)[C@@H](CC(C)C)N(C)C(=O)[C@@H]2CCCN2C(=O)C(C)=O)[C@@H](C)OC(=O)[C@H](Cc2ccc(OC)cc2)N(C)C(=O)[C@@H]2CCCN2C(=O)[C@H](CC(C)C)NC(=O)[C@@H](C)C(=O)[C@H](C(C)C)OC(=O)C[C@@H]1O [SAPL1, Aplidine] (Pyruvoyl-P[dNMeL]T[X1]LP[NMeY](Me); ester 3-C)
IC50 ([1]; Homo sapiens, K562, MTT): 572 nM | IC50 ([2]; Homo sapiens, MC116, MTT): 921 nM | IC50 (786-O (Renal); Homo sapiens, 786-0, read-out: IC50 (Molar) Renal 786-O): 83.1 nM | IC50 (MEL-28 human melanoma): 0.45 nM | IC50 (MX-1 (Breast)): 167 nM | IC50 ([3]; Homo sapiens, HuT78, read-out: IC50 (Molar) Lymphoma (Cutaneous T cell) Hut 78): 44.7 nM | IC50 (SK-OV-3 (Ovary); Homo sapiens, SK-OV-3, read-out: IC50 (Molar) Ovary SK-OV-3): 72 nM | IC50 [9]: 0.45 nM | IC50 (CCRF-SB (ALL, B-cell); Homo sapiens, CCRF-SB): 472 nM | IC50 ([4]; Homo sapiens, MOLT-3, MTT): 595 nM | IC50 ([5]; Homo sapiens, HL-60): 78.9 nM | IC50 (P388 Murine lymphoma): 0.18 nM | IC50 ([6]; Homo sapiens, P3HR-1, read-out: IC50 (Molar) Lymphoma (Burkitts ascites) P3HR1): 53.4 nM | IC50 (SK-HEP-1 (Liver); Homo sapiens, SK-HEP1, MTT): 94.4 nM | IC50 (PANC-1 (Pancreas); Homo sapiens, PANC-1, read-out: IC50 (Molar) Pancreas PANC-1): 170 nM | IC50 [10]: 0.18 nM | IC50 (A549 (NSCL); Homo sapiens, A549): 24000 nM | IC50 (FADU (Pharynx); Homo sapiens, FaDu, MTT): 72.9 nM | IC50 (5637 (Bladder); MTT): 35.9 nM | IC50 (H9 (Lymphoma, T cell); T-cell): 525 nM | IC50 (SW 694 (Fibrosarcoma)): 1490 nM | IC50 ([8]; Homo sapiens, U-937, read-out: IC50 (Molar) Lymphoma (Histiocytic) U-937): 562 nM | IC50 (Hs746t (Gastric); Homo sapiens, Hs746T, MTT): 25.2 nM | IC50 [11]: 178 nM | IC50 (HT-29 (Colon); Homo sapiens, HT-29, MTT): 687 nM

CC[C@H](C)[C@H]1NC(=O)[C@@H](NC(=O)[C@@H](CC(C)C)N(C)C(=O)[C@@H]2CCCN2C(=O)C(C)=O)[C@@H](C)OC(=O)[C@H](Cc2ccc(OC)cc2)N(C)C(=O)[C@@H]2CCCN2C(=O)[C@H](CC(C)C)NC(=O)[C@H](C(C)C)OC(=O)C[C@@H]1O [SHPL1, [Hiv]^3-Aplidine] (Pyruvoyl-P[dNMeL]T[X2][Hiv]LP[NMeY](Me); ester 3-C)
IC50 ([1]; Homo sapiens, K562, MTS (new)): 521 nM | IC50 ([2]; Homo sapiens, MC116, MTS (new)): 382 nM | IC50 (MEL-28 human melanoma): 0.474 nM | IC50 (CHSA (Chondrosarcoma)): 3.45 nM | IC50 [9]: 0.474 nM | IC50 ([4]; Homo sapiens, MOLT-3, MTS (new)): 17.7 nM | IC50 (P388 Murine lymphoma): 0.474 nM | IC50 (SK-HEP-1 (Liver); Homo sapiens, SK-HEP1, MTS (new)): 265 nM | IC50 (OSA-FH (Osteosarcoma)): 5.89 nM | specificity against solid tumors in the MTS assay [12]: more specific against solid tumors like colon, chondrosarcoma and osteosarcoma | IC50 [10]: 0.474 nM | IC50 (FADU (Pharynx); Homo sapiens, FaDu, MTS (new)): 37.1 nM | IC50 (Mel-28 (Melanoma)): 486 nM | IC50 (5637 (Bladder); MTS (new)): 90.2 nM | IC50 (Hs746t (Gastric); Homo sapiens, Hs746T, MTS (new)): 71.6 nM | IC50 (HT-29 (Colon); Homo sapiens, HT-29, MTS (new)): 10.2 nM | IC50 (LNCAP (Prostate)): 14.6 nM

CC[C@H](C)[C@H]1NC(=O)[C@@H](NC(=O)[C@@H](CC(C)C)N(C)C(=O)[C@@H]2CCCN2C(=O)C(C)=O)[C@@H](C)OC(=O)[C@H](Cc2ccc(OC)cc2)N(C)C(=O)[C@@H]2CCCN2C(=O)[C@H](CC(C)C)NC(=O)[C@H](C(C)C)NC(=O)C[C@@H]1O [SVPL1, [Val]^3-Aplidine] (Pyruvoyl-P[dNMeL]T[X2]VLP[NMeY](Me); ester 3-C)
IC50 (MEL-28 human melanoma): 0.113 nM | IC50 [9]: 0.113 nM | in vitro antitumor activity (tumor cells): high level of in vitro antitumor activity | IC50 (P388 Murine lymphoma): 0.113 nM | IC50 [10]: 0.113 nM

[Hiv]^3-[L-Lac]^9-aplidine [9LSHPL1(L)]
protein biosynthesis inhibition properties (protein biosynthesis): retains similar levels | in vitro activity against pancreatic carcinoma (pancreatic carcinoma): somewhat more active in vitro than III | tumor type specificity in NCI 60 cell panel (NCI 60 cell panel): does not show any tumor type specificity | in vitro antitumor activity in clonogenic assays [13]: retains similar levels of in vitro antitumor activity

Source: patent publication US20080009435A1, “Synthetic methods for aplidine and new antitumoral derivatives, methods of making and using them” (Pharma Mar, S.A., a Spain corporation, priority 2000, published 2008)
